Data: patent US20260191786A1, “SOLID DOSAGE FORMS WITH HIGH ACTIVE AGENT LOADING” (Lonza Sales AG, priority 2018, published 2026)
≈ marks a conversion by molar mass, not a printed value. Where two headings read alike, the source gives them in different places.

Assays:
Type in all cases: physicochemical
[1] = Log P of the active agent
Source text: Log P: The Log P value of an active agent is defined as the base 10 logarithm of the ratio of (1) the active agent concentration in an octanol phase to (2) the active agent concentration in a water phase when the two phases are in equilibrium with each other, is a widely accepted measure of lipophilicity. The Log P value may be measured experimentally or calculated using methods known in the art. The Log P value may be estimated experimentally by determining the ratio of the drug solubility in octanol to the drug solubility in water. When using a calculated value for the Log P value, the highest value calculated using any generally accepted method for calculating Log P is used.

[2] = pKa (base) of the active agent
[3] = Crystalline and amorphous solubility of the active agent in SIF / gastric buffer

| pKa (base) [2] | Compound | Log P [1] | solubility ([3]; 0.5% SIF (simulated intestinal fluid), fassgf or other biorelevant, amorphous, 0.5% SIF, read-out: amorphous solubility in 0.5% SIF) [µg/mL] | solubility ([3]; gastric buffer (GB), simulated gastric fluid, thermodynamic from solid, crystalline, gastric buffer, read-out: crystalline solubility in gastric buffer (GB)) [µg/mL] | pKa [2] |
| --- | --- | --- | --- | --- | --- |
| 4.5 | Posaconazole | 4.5 |  |  |  |
|  | C#Cc1cccc(Nc2ncnc3cc(OCCOC)c(OCCOC)cc23)c1 [Erlotinib] | 2.8 | ~380 (≈ 966 µM) | 182 (≈ 463 µM) | 5.3 |
